Counter-ions that a name gives are not always drawn.
Columns and labels:
[1] = target: T1, cloned human 5-HT6 receptor (Homo sapiens, UniProt P50406); assay: 5-HT6 Receptor Binding Assay ([3H]-LSD radioligand, SPA); conditions: for inhibition at 1 µM: read-out: 5HT6 % inh @ 1 uM
T1 construct: host or cells: HeLa cells, G-418 selection, membrane preparation
Procedure: 5-HT6 Receptor Binding Assay
Hela cells containing the cloned human 5-HT6 receptor were acquired from Dr. David R. Sibley's laboratory in National Institute of Health (see Sibley, D. R., J. Neurochemistry, 66, 47-56, 1996). Cells were grown in high glucose Dulbecco's modified Eagle's medium, supplemented with L-glutamine, 0.5% sodium pyruvate, 0.3% penicillin-streptomycin, 0.025% G-418 and 5% Gibco fetal bovine serum and then were harvested, when confluent, in cold phosphate buffered saline.
Harvested intact cells were washed once in cold phosphate-buffered saline. The cells were pelleted and resuspended in 100 ml of cold 50 mM Tris, 5 mM EDTA and 5 mM EGTA, pH 7.4. Homogenization was with a Vir Tishear generator, 4 cycles for 30 seconds each at setting 50. The homogenized cells were centrifuged at […] for 10 minutes and the supernatant was removed. The pellet was resuspended in 100 ml of the above buffer and rehomogenized for 2 cycles. The rehomogenized cells were then centrifuged at […] for 10 minutes and the supernatant was removed. The combined supernatant (200 ml) was centrifuged at 23,000 RPM (80,000×g) for 1 hour in a Beckman Rotor (42.1 Ti). The membrane pellet was resuspended in […] of assay buffer containing HEPES 20 mM, MgCl2 10 mM, NaCl 150 mM, EDTA 1 mM, pH 7.4 and stored frozen in aliqouts at −70° C.
The radioligand binding assay used [^3H]-lysergic acid diethylamide (LSD). The assay was carried out in Wallac 96-well sample plates by the addition of 11 μl of the test sample at the appropriate dilution (the assay employed 11 serial concentrations of samples run in duplicate), 11 μl of radioligand, and 178 μl of a washed mixture of WGA-coated SPA beads and membranes in binding buffer. The plates were shaken for about 5 minutes and then incubated at room temperature for 1 hour. The plates were then loaded into counting cassettes and counted in a Wallac MicroBeta Trilux scintillation counter.
Binding Constant Determination may be obtained by performing serial dilutions, e.g., eleven dilutions, of test compounds into assay plates using the PE/Cetus Pro/Pette pipetter. These dilutions are followed by radioligand and the bead-membrane mixture prepared as described above. After obtaining the specifically bound cpm, the data are fit to a one-site binding model using GraphPad Prism ver. 2.0. Estimated IC50 values are converted to Ki values using the Cheng-Prusoff equation (Cheng, Y. C. et al., Biochem. Pharmacol., 22, 3099-108, 1973).

T1 sequence (P50406 whole entry): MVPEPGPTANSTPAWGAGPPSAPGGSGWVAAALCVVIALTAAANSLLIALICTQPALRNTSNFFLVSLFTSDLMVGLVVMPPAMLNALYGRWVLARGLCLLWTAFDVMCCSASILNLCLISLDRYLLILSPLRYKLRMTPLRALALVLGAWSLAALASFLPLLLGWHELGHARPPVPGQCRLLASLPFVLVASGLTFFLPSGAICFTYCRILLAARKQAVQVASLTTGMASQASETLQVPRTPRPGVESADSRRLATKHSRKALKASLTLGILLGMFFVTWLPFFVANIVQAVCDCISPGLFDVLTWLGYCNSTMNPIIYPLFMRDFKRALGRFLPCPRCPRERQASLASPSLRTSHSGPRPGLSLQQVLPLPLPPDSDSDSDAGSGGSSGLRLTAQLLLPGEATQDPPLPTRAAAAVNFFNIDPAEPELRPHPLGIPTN

Structure (SMILES)	melting point [°C]	inhibition at 1 µM [1] [%]	inhibition at 0.3 µM ([1]; 0.3 μM (stated in cell), read-out: 5HT6 % inh @ 0.3 μM) [%]
CN1CCC(c2cccc(C(=O)N3CCC(Oc4cccc(F)c4)CC3)n2)C1 (stereo not shown) (as salt: hydrochloride) [Example 16, [4-(3-Fluoro-phenoxy)-piperidin-1-yl]-[6-(1-methyl-pyrrolidin-3-yl)-pyridin-2-yl]-methanone]	85 to 86	–	–
CN1CCN(c2cccc(C(=O)N3CC=C(c4ccccc4F)CC3)n2)CC1 (as salt: hydrochloride) [Example 21, [4-(2-Fluoro-phenyl)-3,6-dihydro-2H-pyridin-1-yl]-[6-(4-methyl-piperazin-1-yl)-pyridin-2-yl]-methanone]	176.7 to 177.2	–	–
Cc1cccc(F)c1C1CCN(C(=O)c2cccc(N3CCN(C)CC3)n2)CC1 (as salt: hydrochloride) [Example 23, [4-(2-Fluoro-6-methyl-phenyl)-piperidin-1-yl]-[6-(4-methyl-piperazin-1-yl)-pyridin-2-yl]-methanone]	163 to 164.7	–	–
Cc1ccccc1C1CCCCN1C(=O)c1cccc(N2CCNCC2)n1 (stereo not shown) (as salt: hydrochloride) [Example 26, (6-Piperazin-1-yl-pyridin-2-yl)-(2-o-tolyl-piperidin-1-yl)-methanone]	105.6 to 106	–	–
O=C(c1cccc(N2CCCNCC2)n1)N1CC[C@H](Oc2ccccc2F)C1 (as salt: hydrochloride) [Example 30, (6-[1,4]Diazepan-1-yl-pyridin-2-yl)-[(S)-3-(2-fluoro-phenoxy)-pyrrolidin-1-yl]-methanone]	75 to 77	–	–
CN1CCCN(c2cccc(C(=O)N3CC[C@@H](Oc4ccccc4F)C3)n2)CC1 (as salt: hydrochloride) [Example 46, [(R)-3-(2-Fluoro-phenoxy)-pyrrolidin-1-yl]-[6-(4-methyl-[1,4]diazepan-1-yl)-pyridin-2-yl]-methanone]	106 to 108	–	–
O=S(=O)(c1cccc(N2CCNCC2)n1)N1CCC(c2ccccc2F)CC1 (as salt: hydrochloride) [Example 51, 1-{6-[4-(2-Fluoro-phenyl)-piperidine-1-sulfonyl]-pyridin-2-yl}-piperazine]	211 to 212.2	–	–
Cc1ccccc1O[C@@H]1CCN(C(=O)c2cccc(N3CCCN(C)CC3)n2)C1 (as salt: hydrochloride) [Example 53, [6-(4-Methyl-[1,4]diazepan-1-yl)-pyridin-2-yl]-((R)-3-o-tolyloxy-pyrrolidin-1-yl)-methanone]	94 to 96	–	–
Cc1ccccc1C1CCN(S(=O)(=O)c2cccc(N3CCN(C)CC3)n2)CC1 (as salt: hydrochloride) [Example 78, 1-Methyl-4-[6-(4-o-tolyl-piperidine-1-sulfonyl)-pyridin-2-yl]-piperazine]	203 to 204.5	–	–
Cc1ccccc1OC1CCN(C(=O)c2cccc(C3CCN(C)CC3)n2)CC1 (as salt: hydrochloride) [Example 95, (1′-Methyl-1′,2′,3′,4′,5′,6′-hexahydro-[2,4′]bipyridinyl-6-yl)-(4-o-tolyloxy-piperidin-1-yl)-methanone]	118 to 120	–	–
Cc1cccc(OC2CCN(C(=O)c3cccc(C4CCN(C)C4)n3)CC2)c1 (stereo not shown) [Example 17, [6-(1-Methyl-pyrrolidin-3-yl)-pyridin-2-yl]-(4-m-tolyloxy-piperidin-1-yl)-methanone]	89 to 90	96.4	–
Cc1cccc(O[C@@H]2CCN(C(=O)c3cccc(N4CCCN(C)CC4)n3)C2)c1 [Example 19, [6-(4-Methyl-[1,4]diazepan-1-yl)-pryidin-2-yl]-((R)-3-m-tolyloxy-pyrrolidin-1-yl)-methanone]	82 to 84	78.5	–
CN1CCN(c2cccc(C(=O)N3CCC(c4ccccc4F)CC3)n2)CC1 [Example 20, [4-(2-Fluoro-phenyl)-piperidin-1-yl]-[6-(4-methyl-piperazin-1-yl)-pyridin-2-yl]-methanone]	111 to 113	101	–
Cc1ccccc1C1=CCN(C(=O)c2cccc(N3CCN(C)CC3)n2)CC1 [Example 24, [6-(4-Methyl-piperazin-1-yl)-pyridin-2-yl]-(4-o-tolyl-3,6-dihydro-2H-pyridin-1-yl)-methanone]	160.7 to 162.3	–	92
O=C(c1cccc(N2CCCNCC2)n1)N1CC[C@H](Oc2ccc(F)cc2)C1 [Example 25, (6-[1,4]Diazepan-1-yl-pyridin-2-yl)-[(S)-3-(4-fluoro-phenoxy)-pyrrolidin-1-yl]-methanone]	72 to 74	75.4	–
O=C(c1cccc(N2CCNCC2)n1)N1CCCCC1c1cccc(F)c1 (stereo not shown) [Example 27, [2-(3-Fluoro-phenyl)-piperidin-1-yl]-(6-piperazin-1-yl-pyridin-2-yl)-methanone]	156.8 to 157	94.5	–
Cc1cccc(C2CCCCN2C(=O)c2cccc(N3CCNCC3)n2)c1 (stereo not shown) [Example 28, (6-Piperazin-1-yl-pyridin-2-yl)-(2-m-tolyl-piperidin-1-yl)-methanone]	154.1 to 155.5	94.6	–
O=C(c1cccc(N2CCNCC2)n1)N1CCCCC1c1ccc(F)cc1 (stereo not shown) [Example 29, [2-(4-Fluoro-phenyl)-piperidin-1-yl]-(6-piperazin-1-yl-pyridin-2-yl)-methanone]	102 to 103.2	75.1	–
O=C(c1cccc(N2CCCNCC2)n1)N1CCCCC1c1ccccc1F (stereo not shown) [Example 31, (6-[1,4]Diazepan-1-yl-pyridin-2-yl)-[2-(2-fluoro-phenyl)-piperidin-1-yl]-methanone]	183.4 to 184	94.5	–
Cc1ccccc1C1CCCCN1C(=O)c1cccc(N2CCCNCC2)n1 (stereo not shown) [Example 33, (6-[1,4]Diazepan-1-yl-pyridin-2-yl)-(2-o-tolyl-piperidin-1-yl)-methanone]	123.3 to 124	84.6	–
Cc1cccc(C2CCCCN2C(=O)c2cccc(N3CCCNCC3)n2)c1 (stereo not shown) [Example 34, (6-[1,4]Diazepan-1-yl-pyridin-2-yl)-(2-m-tolyl-piperidin-1-yl)-methanone]	138.5 to 139	95.3	–
Cc1ccccc1O[C@H]1CCN(C(=O)c2cccc(N3CCCNCC3)n2)C1 [Example 36, (6-[1,4]Diazepan-1-yl-pyridin-2-yl)-((S)-3-o-tolyloxy-pyrrolidin-1-yl)-methanone]	140 to 142	93.5	–
Cc1ccc(C2CCCCN2C(=O)c2cccc(N3CCCNCC3)n2)cc1 (stereo not shown) [Example 37, (6-[1,4]Diazepan-1-yl-pyridin-2-yl)-(2-p-tolyl-piperidin-1-yl)-methanone]	147.9 to 148.5	71.6	–
O=C(c1cccc(N2CCCNCC2)n1)N1CCC[C@H](Oc2cccc(F)c2)C1 [Example 38, (6-[1,4]Diazepan-1-yl-pyridin-2-yl)-[(S)-3-(3-fluoro-phenoxy)-piperidin-1-yl]-methanone]	96.9 to 97.5	99.4	–
O=C(c1cccc(N2CCCNCC2)n1)N1CCC[C@H](Oc2ccc(F)cc2)C1 [Example 39, (6-[1,4]Diazepan-1-yl-pyridin-2-yl)-[(S)-3-(4-fluoro-phenoxy)-piperidin-1-yl]-methanone]	107.9 to 109	82	–

Reference: US20090197859A1 (Pfizer Inc., priority 2008, published 2009)
